Results taken from BigSolDB 2.1.

CC(=CC(C)=Nc1c(C)cccc1C)Nc1c(C)cccc1C
solubility (mole fraction)
Conditions | 273.15 K | 278.15 K | 283.15 K | 288.15 K | 293.15 K | 298.15 K | 303.15 K
in THF | 0.345 | 0.362 | 0.381 | 0.403 | 0.429 | 0.456 | 0.487
in diethyl ether | 0.188 | 0.204 | 0.22 | 0.239 | 0.265 | 0.295 | 0.334
in ethanol | 0.0093 | 0.0099 | 0.0107 | 0.0117 | 0.0129 | 0.0143 | 0.0166
in methanol | 0.0015 | 0.0017 | 0.002 | 0.0024 | 0.0029 | 0.0033 | 0.0041
in n-hexane | 0.167 | 0.194 | 0.223 | 0.253 | 0.285 | 0.316 | 0.347
in toluene | 0.266 | 0.296 | 0.324 | 0.347 | 0.374 | 0.433 | 0.503
